{
  "source": "ChEMBL document CHEMBL1201862",
  "about": "“PubChem BioAssay data set” (2004)",
  "key": {"Troponin, cardiac muscle": {"molecular_target": "Troponin, cardiac muscle (Homo sapiens, UniProt P19429+P45379+P63316)", "assay": "Fluorescence-based biochemical high throughput dose response assay for activators of the calcium sensitivity of cardiac Regulated Thin Filaments (RTF). [Related pubchem assays (depositor defined):AID493008, AID493018, AID504382, AID504383]", "type": "protein-complex assay"}, "[1]": {"molecular_target": "T1, High affinity choline transporter 1 (Homo sapiens, UniProt Q9GZV3)", "T1 sequence (Q9GZV3 whole entry)": "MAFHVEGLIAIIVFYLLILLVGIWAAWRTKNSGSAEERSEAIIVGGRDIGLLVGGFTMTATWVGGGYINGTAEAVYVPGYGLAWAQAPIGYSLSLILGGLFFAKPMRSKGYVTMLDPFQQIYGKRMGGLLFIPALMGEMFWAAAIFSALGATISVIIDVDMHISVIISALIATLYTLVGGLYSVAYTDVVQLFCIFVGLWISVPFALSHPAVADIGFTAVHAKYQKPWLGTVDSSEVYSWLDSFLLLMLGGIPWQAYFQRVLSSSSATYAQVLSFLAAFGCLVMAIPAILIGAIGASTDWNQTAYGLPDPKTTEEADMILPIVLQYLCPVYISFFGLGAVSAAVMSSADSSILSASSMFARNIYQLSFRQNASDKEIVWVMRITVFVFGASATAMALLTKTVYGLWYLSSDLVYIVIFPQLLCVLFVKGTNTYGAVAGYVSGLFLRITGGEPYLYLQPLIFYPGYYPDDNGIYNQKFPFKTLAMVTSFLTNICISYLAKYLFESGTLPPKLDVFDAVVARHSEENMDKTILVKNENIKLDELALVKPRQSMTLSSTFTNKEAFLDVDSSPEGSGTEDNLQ", "assay": "CHT activators, dose response, cell-based, 10-point CRC, membrane potential dye (AID 602376)", "type": "functional"}, "[2]": {"molecular_target": "T2, Endoribonuclease toxin MazF (Escherichia coli K-12, UniProt P0AE70)", "T2 sequence (P0AE70 whole entry)": "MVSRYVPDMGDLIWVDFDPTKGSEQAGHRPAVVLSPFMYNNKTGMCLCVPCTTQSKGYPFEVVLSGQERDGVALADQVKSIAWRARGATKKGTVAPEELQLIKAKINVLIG", "assay": "MazF endoribonuclease activators, SAR follow-up, biochemical, fluorescence, single-stranded RNA substrate (AID 588603)", "type": "functional"}, "[3]": {"molecular_target": "T2, Endoribonuclease toxin MazF", "assay": "MazF toxin RNase activators, dose response, biochemical, fluorescence, single-stranded RNA substrate, uHTS hits (AID 588481)", "type": "functional"}, "MEF": {"test_system": "MEF", "assay": "SAR analysis of small molecule cytotoxicity of MazEF TA System activators in embryonic fibroblast (MEF) cells. [Related pubchem assays (depositor defined):AID504720, AID504743]", "type": "functional", "conditions": "Mus musculus"}, "[4]": {"molecular_target": "T2, Endoribonuclease toxin MazF", "assay": "SAR analysis of small molecule activators of the MazEF TA System via a fluorescence-based single-stranded RNase assay counterscreen. [Related pubchem assays (depositor defined):AID504720, AID504743]", "type": "functional"}, "[5]": {"molecular_target": "T2, Endoribonuclease toxin MazF", "assay": "fluorescent RNA oligo signal without MazF, dose response, counter-screen for MazEF activator project, biochemical, fluorescence, single-stranded RNase substrate (AID 588502)", "type": "functional"}, "[6]": {"molecular_target": "DNA dC->dU-editing enzyme APOBEC-3G (Homo sapiens, UniProt Q9HC16)", "sequence (Q9HC16 whole entry)": "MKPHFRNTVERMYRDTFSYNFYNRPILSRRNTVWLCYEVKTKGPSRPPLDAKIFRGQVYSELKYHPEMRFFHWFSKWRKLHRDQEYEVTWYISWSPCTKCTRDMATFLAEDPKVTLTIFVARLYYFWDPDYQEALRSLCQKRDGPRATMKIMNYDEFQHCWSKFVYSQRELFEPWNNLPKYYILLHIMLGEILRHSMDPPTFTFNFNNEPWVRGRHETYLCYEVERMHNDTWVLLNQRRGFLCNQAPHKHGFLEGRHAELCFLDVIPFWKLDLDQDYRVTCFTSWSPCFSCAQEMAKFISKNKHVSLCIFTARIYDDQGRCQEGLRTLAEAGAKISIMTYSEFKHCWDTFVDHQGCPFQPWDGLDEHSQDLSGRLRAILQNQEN", "assay": "APOBEC3G deaminase inhibitors, SAR follow-up, biochemical, fluorescence, single-stranded DNA substrate (AID 602136)", "type": "functional", "conditions": "read-out: IC50_Mean"}, "[7]": {"molecular_target": "DNA dC->dU-editing enzyme APOBEC-3A (Homo sapiens, UniProt P31941)", "sequence (P31941 whole entry)": "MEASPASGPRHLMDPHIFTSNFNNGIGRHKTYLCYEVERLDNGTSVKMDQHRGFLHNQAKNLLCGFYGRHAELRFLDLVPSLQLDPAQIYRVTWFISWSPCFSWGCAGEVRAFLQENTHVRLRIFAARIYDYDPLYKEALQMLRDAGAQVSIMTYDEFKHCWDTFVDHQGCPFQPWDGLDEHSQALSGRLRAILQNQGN", "assay": "SAR analysis of small molecule inhibitors of APOBEC3A DNA Deaminase via a fluorescence-based single-stranded DNA deaminase assay.", "type": "functional", "conditions": "read-out: IC50_Mean"}},
  "note": "The source made the active and inactive calls.",
  "data": [
    {"compound": "CC(C)CN1CCN(Cc2cccn2-c2ccc(Cl)cn2)CC1CCO", "note": "(centres undefined)", "values": [
      {"measurement": "EC50", "setting": "Troponin, cardiac muscle", "value": "> 71.5 µM (inactive)"},
      {"measurement": "EC50", "setting": "[1]", "value": "8.24 µM (active)"}
    ]},
    {"compound": "N=c1c2c(ncn1CCCO)Oc1cc(O)ccc1C2c1ccccc1", "note": "(centres undefined)", "values": [
      {"measurement": "EC50", "setting": "[2]", "value": "6.2 µM (active)"},
      {"measurement": "EC50", "setting": "[3]", "value": "6.82 µM (active)"},
      {"measurement": "CC50", "setting": "MEF", "value": "> 99 µM (inactive)"},
      {"measurement": "EC50", "setting": "[4]", "value": "78.8 µM (inactive)"},
      {"measurement": "EC50", "setting": "[5]", "value": "> 99 µM (inactive)"}
    ]},
    {"compound": "O=C(CCN1CCSC1=O)Nc1cc(Cl)ccc1N1CCOCC1", "values": [
      {"measurement": "IC50", "setting": "[6]", "value": "> 99 µM (inactive)"},
      {"measurement": "IC50", "setting": "[7]", "value": "> 99 µM (inactive)"}
    ]}
  ]
}
